The target in one series is T1, human MCH-1 receptor (Homo sapiens, UniProt Q99705).
T1 construct: expressed in transfected cells
Description: Ca2+ mobilization experiment for the MCH-1 receptor (FLIPR), inhibition of MCH-induced Ca2+ mobilization. Type of series: cell-based. The note with it: CHO cells stably expressing human MCH-1 receptor, inhibition of MCH-induced Ca2+ response, read-out: MCH-1 pIC50 (converted). An outline of the steps:
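Calcium-dye loading (kit with probenecid) of CHO cells stably expressing human MCH-1 ran 90 min at 37C. Cells were then preincubated with compound for 20 min at RT before a submaximal MCH challenge, and Ca2+ was recorded by FLIPR. Responses were expressed as % of compound-free response, and pIC50 came from sigmoidal fits.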

The next series concerns the target T2, MCH-1 receptor (Rattus norvegicus, UniProt P97639).
T2 construct: host or cells: rodents in vivo
The note with it: rodents tests; Nat. Med. (2002) 8, 825-830; cited from earlier work.

Counter-ions that a name gives are not always drawn.

Broadly, the melting point is the temperature, or range, at which the solid turns liquid.

T1 sequence (Q99705 whole entry): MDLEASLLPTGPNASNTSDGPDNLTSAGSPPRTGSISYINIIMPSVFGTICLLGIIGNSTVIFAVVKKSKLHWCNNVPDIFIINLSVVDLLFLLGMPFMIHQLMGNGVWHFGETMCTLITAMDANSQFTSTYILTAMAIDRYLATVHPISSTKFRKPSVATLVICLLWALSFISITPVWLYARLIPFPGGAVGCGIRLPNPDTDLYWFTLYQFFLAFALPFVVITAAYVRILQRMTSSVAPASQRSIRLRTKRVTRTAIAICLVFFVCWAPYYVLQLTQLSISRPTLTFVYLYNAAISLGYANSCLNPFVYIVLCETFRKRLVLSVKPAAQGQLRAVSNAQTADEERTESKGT
T2 sequence (P97639 whole entry): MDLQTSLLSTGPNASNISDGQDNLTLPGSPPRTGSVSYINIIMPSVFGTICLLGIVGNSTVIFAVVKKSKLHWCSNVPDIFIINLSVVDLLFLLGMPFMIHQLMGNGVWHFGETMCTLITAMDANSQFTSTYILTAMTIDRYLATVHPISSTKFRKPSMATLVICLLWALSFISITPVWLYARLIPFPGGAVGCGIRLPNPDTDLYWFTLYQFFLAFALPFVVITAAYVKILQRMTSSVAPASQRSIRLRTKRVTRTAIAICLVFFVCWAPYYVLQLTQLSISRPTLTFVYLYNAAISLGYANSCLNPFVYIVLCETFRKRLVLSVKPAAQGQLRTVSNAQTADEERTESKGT

In turn, `COc1cc(-n2ccnc(NCCOc3ccccc3)c2=O)ccc1OCCN1CCC(F)CC1` (as salt: HCl) [1-70] gave a melting point of 234.9 °C. For the compound `COc1cc(-n2ccnc(NCCc3ccccc3)c2=O)ccc1OC1CCNC1` (centres unmarked) [3-31], the melting point was 151.6 °C. Also, the IC50 on human MCH-1 receptor is 39.8 nM.

Regarding `COc1cc(-n2ccnc(SCCc3ccccc3)c2=O)ccc1OCCN1CCCC1` [2-11], the melting point was found to be 79.4 °C. Besides, on human MCH-1 receptor, the IC50 is 20 nM. `CN(CCO)CCOc1ccc(-n2ccnc(NCCOc3ccccc3)c2=O)cc1` [1-26] had a melting point of 103.6 °C. For the same compound, at human MCH-1 receptor, the IC50 is 251 nM. Compound `COc1cc(-n2ccnc(SCCc3ccccc3)c2=O)ccc1N1CCC(N(C)C)C1` (centres unmarked) [6-07] registered a melting point of 126.5 °C. Besides, on human MCH-1 receptor, the IC50 was 20 nM. The compound `O=c1c(NCCc2ccccc2)nccn1-c1ccc(OCCN2CCCC2)c(Cl)c1` [2-03] returned a melting point of 120.2 °C. In addition, at human MCH-1 receptor, the IC50 is 31.6 nM. Turning to `COc1cc(-n2ccnc(SCCc3ccccc3)c2=O)ccc1N1CCC(N(C)C(C)=O)C1` (centres unmarked) [6-08], the melting point is 105.5 °C. For the same compound, the IC50 at human MCH-1 receptor was 31.6 nM. With `O=c1c(NCCc2ccccc2)nccn1CCc1ccc(CN2CCCC2)cc1` [9-01], the melting point was 177 °C. Further, the IC50 at human MCH-1 receptor is 20 nM. Compound `COc1cc(-n2ccnc(NCCc3ccccc3)c2=O)ccc1NCCCN1CCOCC1` [3-30] showed a melting point of more than 300 °C. In addition, the IC50 on human MCH-1 receptor is 63.1 nM.

In turn, `COc1cc(-n2ccnc(SCCc3ccccc3)c2=O)ccc1NC(=O)CN1CCCC1` [6-18] displayed a melting point of more than 300 °C. Further, the IC50 at human MCH-1 receptor is 316 nM. In turn, `COc1cc(-n2ccnc(NCCc3ccccc3)c2=O)ccc1N1CCC(N2CCOCC2)C1` (centres unmarked) [3-21] displayed a melting point of more than 300 °C. Moreover, the IC50 on human MCH-1 receptor was 79.4 nM.

In the case of `O=c1c(NCCc2ccccc2)nccn1-c1ccc(OCCN2CCC(O)CC2)c(Cl)c1` [3-81], the melting point amounted to 151.2 °C. Moreover, the IC50 at human MCH-1 receptor was 25.1 nM.

As for `CC(=O)N1CCN(CCOc2ccc(-n3ccnc(NCCc4ccccc4)c3=O)cc2Cl)CC1` [3-83], the melting point was found to be 121.8 °C. At human MCH-1 receptor, the IC50 is 50.1 nM. Consider `COc1cc(-n2ccnc(NCCc3ccccc3)c2=O)ccc1OCCN1CCCC1` [2-04], for which the melting point is 101.1 °C. Further, the IC50 on human MCH-1 receptor is 39.8 nM. `O=c1c(NCCOc2ccccc2)nccn1-c1ccc(OCCN2CCOCC2)cc1` [1-44] came in with a melting point of 138.1 °C. Further, the IC50 on human MCH-1 receptor is 501 nM. `CNC1CCN(c2ccc(-n3ccnc(SCCc4ccccc4)c3=O)cc2OC)C1` (centres unmarked) [6-04] registered a melting point of 113.2 °C. Further, the IC50 on human MCH-1 receptor is 25.1 nM.

`CC(=O)N(C)CCOc1ccc(-n2ccnc(NCCOc3ccccc3)c2=O)cc1` [1-30] showed a melting point of 105.9 °C. In addition, the IC50 on human MCH-1 receptor was 501 nM. For the compound `COc1cc(-n2ccnc(NCCOc3ccccc3)c2=O)ccc1OCCN1CCCC1` (as salt: HCl) [1-67], the melting point came out at 198.7 °C. Turning to `COCC1=C(C(=O)OC)[C@H](c2ccc(F)c(F)c2)N(C(=O)NCCCN2CCC(c3cccc(NC(C)=O)c3)CC2)C(=O)N1` [SNAP-7941], the “antidepressant- and anxiolytic-like effects” value on MCH-1 receptor was “antidepressant- and axiolytic-like affects”.

For `O=c1c(NCCc2ccccc2)nccn1-c1ccc(OCCN2CCCC2)cc1` [2-02], the IC50 at human MCH-1 receptor was 126 nM. Turning to `O=c1c(NCCOc2ccccc2)nccn1-c1ccc(OCCN2CCCCC2)cc1` [1-38], the IC50 at human MCH-1 receptor was 1580 nM.

Regarding `CN(C)CC(=O)Nc1ccc(-n2ccnc(NCCOc3ccccc3)c2=O)cc1` [1-22], the IC50 at human MCH-1 receptor was 2000 nM. As for `O=c1c(NCCOc2ccccc2)nccn1-c1ccc2c(cnn2CCN2CCCC2)c1` [3-85], at human MCH-1 receptor, the IC50 was 398 nM.

With `COc1cc(-n2ccnc(N3CCC(c4ccc(Cl)c(Cl)c4)C3)c2=O)ccc1OCCN1CCCC1` (centres unmarked) [4-08], at human MCH-1 receptor, the IC50 is 794 nM. For the compound `CN(C)CCN(C)CCOc1ccc(-n2ccnc(NCCOc3ccccc3)c2=O)cc1` [1-27], the IC50 on human MCH-1 receptor is more than 10000 nM. On the same count and under the same terms, next, `COc1cc(-n2ccnc(NCCc3ccccc3)c2=O)ccc1OCCN(C)C1CC1` [3-42]: 31.6 nM. With `COc1cc(-n2ccnc(NCCc3ccccc3)c2=O)ccc1NC1CCNC1` (centres unmarked) [3-24], the IC50 at human MCH-1 receptor is 200 nM. Take `NC(=O)c1cc(-n2ccnc(NCCOc3ccccc3)c2=O)ccc1OCCN1CCCC1` [1-55]: at human MCH-1 receptor, the IC50 is 1000 nM.

With `COc1cc(-n2ccnc(NCCc3ccccc3)c2=O)ccc1OC[C@@H]1CCCN1C` [3-35], at human MCH-1 receptor, the IC50 was 25.1 nM. Consider `COc1cc(-n2ccnc(NCCc3ccccc3)c2=O)ccc1NCCN1CCOCC1` [3-29], for which, at human MCH-1 receptor, the IC50 is 63.1 nM. Regarding `COc1cc(-n2ccnc(NCCOc3ccccc3C)c2=O)ccc1OCCN1CCCC1` [2-33], at human MCH-1 receptor, the IC50 was 200 nM.

The values above are taken from patent US8329704B2, “Substituted pyrazinone derivatives for use in MCH-1 mediated diseases” (Janssen Pharmaceutica, N.V., priority 2005, dated 2012).
